Patent US20240082416A1, “AMATOXIN ANALOGS AND USES THEREOF” (THE UNIVERSITY OF BRITISH COLUMBIA, priority 2020, published 2024)
Several values for one entry are separate records, joined by “and”; a condition that tells them apart may be missing. Equal values may be shown once. Starred links: 1 amine or outer side, 2 acyl side, 3 side chain; linkers in the order of their positions; H or OH if unused. Positions of bridges follow the written chain, without caps; N, C: chain ends. Non-standard residues stand in square brackets, D forms with d. Residues, ends and D or L forms follow the SMILES beside them. Trp(2-yl) = O=C([C@H](Cc1c([*:3])[nH]c2ccccc12)N[*:1])[*:2]; Pro(trans-4-guanidino) = N=C(N)N[C@H]1CN[C@H](C(=O)O)C1; Pro(4R-SH) = O=C([C@@H]1C[C@@H](S[*:3])CN1[*:1])[*:2]; Ile(4R-OH,5-OH) = C[C@H]([C@H](N)C(=O)O)[C@@H](O)CO

What was measured:
[1] = Viability assay against CHO cells (MTT colorimetric assay); type: cell-based, Chinese hamster; details: Chinese hamster, CHO cells, 72 h, replicates n = 1, 2, 3, read-out: % viable cells; for viability at 72 h, 1e-05 M: 1e-005 M; for viability at 72 h, 1.25e-06 M: 1.25e-006 M; for viability at 72 h, 1.56e-07 M: 1.56e-007 M; for viability at 72 h, 2e-05 M: 2e-005 M; for viability at 72 h, 2.5e-06 M: 2.5e-006 M; for viability at 72 h, 3.125e-07 M: 3.125e-007 M; for viability at 72 h, 5e-06 M: 5e-006 M; for viability at 72 h, 6.25e-07 M: 6.25e-007 M; for viability at 72 h, 7.8e-08 M: 7.8e-008 M
Method: (§1) (f) Cell culture: Cells were cultured in Minimum Essential Medium Eagle—Alpha Modification (α-MEM) or […] Dulbecco's Modified Eagle Medium (DMEM), purchased from Gibco. […] All cell culture plastic ware was obtained from Coming or Falcon. Cells were cultured at 37° C. in a humidified chamber with 5% CO2. When used in cell culture, DMSO was purified by filtration through a […] filter. All experiments were carried out in a laminar flow culture cabinet, unless otherwise noted.
(§2) Immortalized CHO cells had been stored in liquid nitrogen. To revive cells, a 1-mL tube of the frozen cells in medium containing 10% DMSO was warmed in a 30° C. water bath and diluted with 9 mL of fresh media. Media contained 10% FBS and 100 U/mL penicillin and […] streptomycin, unless otherwise indicated. The cells were incubated in a T-25 flask at 37° C. at 5% CO2. After 24 hours, the medium was aspirated and replaced with fresh medium. When cells reached a level of 90-100% confluence, they were sub-cultured. […] Once the cells were detached from the tissue culture flask, 3-5 mL media was added to quench the trypsin and the mixture was transferred to a 10 mL centrifuge tube. The mixture was centrifuged for 5 min at […], and the supernatant was discarded. The cells were suspended in fresh medium, diluted as required, and transferred to a new culture flask.
(§3) To assay cell viability, a nearly confluent tissue culture flask was trypsinized, and the cells were counted following treatment with Trypan blue, using a hemocytometer. The cells were then diluted to the appropriate stock concentrations in fresh medium and transferred in 100 μL to a 96-well plate using a multi-channel pipette. The number of cells plated varied from experiment to experiment. These were incubated at 37° C. and 5% CO2 for a 24-hour period to allow for adherence. The medium was aspirated, and fresh medium was added, which contained the desired additives in DMSO. The cells were then re-incubated for 72 h. At the completion of the experiment, a 100 μL aliquot of 25 mg/mL MTT in phosphate-buffered saline (PBS) was added to each well. The plate was incubated three hours further to allow for the formation of the formazan product in viable cells. The media was carefully aspirated, and the purple product was solubilized in DMSO. […] Data was processed in Microsoft Excel and GraphPad Prism. Experiments were performed in triplicates unless otherwise noted, and the error bars were calculated as the standard error of the mean.
(§4) Each cell line was plated in a 96-well plate, with 100 μL of the stock solution per well (5000 cells per well) and incubated for 24 hours. […] The cells were incubated for 72 hours, at which point viability was assessed as described.

CHO cells = experiment: as above; type: cell-based, Chinese hamster; details: 72 h, replicates n = 1, 2, 3
Method: as §1, §2, §3, §4

Pol II = molecular target: T1, Pol II (Homo sapiens, UniProt P24928); experiment: In vitro transcription runoff assay using HeLaScribe nuclear extract; type: biochemical; details: for Transcription activity E (%): mean ± standard deviation
T1 construct: HeLaScribe® nuclear extract containing Pol II and all other transcription factors; purchased Promega; host or cells: HeLa nuclear extract (endogenous protein)
Description: (h) In vitro transcription assay of synthetic amanitins containing analogs of Hyp: Primers were purchased from IDT via standard phosphoramidite chemistry. dNTP and rNTP were purchased from Thermofisher. GoTaq polymerase and HeLaScribe*Nuclear Extract in vitro Transcription System was purchased from Promega. Taq polymerase was purchased from NEB. [^32P] α-dGTP (3000 Ci/mmol 10 mCi/ml EasyTide) and [^32P] α-GTP (3000 Ci/mmol 10 mCi/ml EasyTide) were purchased from Perkin Elmer. QIAquick PCR purifcation kit was purchased from Qiagen. AcGFP1-N1 was a gift (Addgene plasmid #54705; http://n2t.net/addgene:54705; RRID:Addgene_54705). DNA Primer sequences were:
The DNA template for transcription runoff was synthesized by PCR with template pAcGFP-N1, and primers P1 and P2. To a final volume of 20 μL, 1 x GoTaq Buffer, 250 μM of each dNTP, 500 nM of each primers P1 and P2, […] pAcGFP-N1 and 0.05 U/μL GoTaq were employed to thermocycle for 30 cycles (30 s at 95° C., 30 s at 50° C. and 60 s at 72° C., Bio-Rad). A 1 μL aliquot of the amplified solution was resolved with 6×DNA loading dye in a 1% agarose gel containing […] and then visualized using GelDoc XR imager (Bio-Rad). Purification was completed via QIAquick PCR purification kit (Qiagen). The radioactive chromatographic standard was synthesized by PCR with template pAcGFP-N1, and primers P3 and P4. To a final volume of 50 μL, 1 x Thermopol Buffer, 200 μM of each dNTP, 500 nM of each primers P3 and P4, 10 pg/μL pAcGFP-N1 and 0.02 U/μL Vent polymerase, 1 μL [^32P] α-dGTP were employed to thermocycle for 30 cycles (30 s at 95° C., 30 s at 62° C. and 30 s at 72° C., Bio-Rad). A 1 μL aliquot of the amplified solution was resolved with 6×DNA loading dye in 8% denaturing PAGE and then visualized by autoradiography via the Typhoon 9200 imager (Molecular namics-Amersham-GE). Purification was completed via QIAquick PCR purification kit (Qiagen). The transcription runoff assay was modified from HeLaScribe® Nuclear Extract in vitro Transcription System (Promega). […]. The pellet was resolved by 8% denaturing PAGE and then visualized by autoradiography via the Typhoon 9200 imager (Molecular dynamics-Amersham-GE). Dosimetry was calculated by ImageJ, and the 3 parameter logistic fit was completed by Origin 2019 (OriginLab). […]
All data were presented in mean±standard deviation (n=3).

[2] = IC50 (nM), Table 11, 3 parameter logistic fit
[3] = IC50 (nM), Table 12, n = 3, high values estimated from activity at [I]=1.0 μM

| SMILES | viability at 72 h, 1e-05 M [1] | viability at 72 h, 1.25e-06 M [1] | viability at 72 h, 1.56e-07 M [1] | viability at 72 h, 2e-05 M [1] | viability at 72 h, 2.5e-06 M [1] | viability at 72 h, 3.125e-07 M [1] | viability at 72 h, 5e-06 M [1] | viability at 72 h, 6.25e-07 M [1] | viability at 72 h, 7.8e-08 M [1] | Transcription activity E (%) (Pol II; 30 nM) | Transcription activity E (%) (Pol II; 100 nM) | Transcription activity E (%) (Pol II; 300 nM) | Transcription activity E (%) (Pol II; 1000 nM) | IC50 (Pol II; IC50) | IC50 (Pol II; [2]) | IC50 (Pol II; [3]) | other results |
| --- | --- | --- | --- | --- | --- | --- | --- | --- | --- | --- | --- | --- | --- | --- | --- | --- | --- |
| CC[C@H](C)[C@@H]1NC(=O)CNC(=O)[C@@H]2Cc3c([nH]c4ccccc34)SC[C@H](NC(=O)CNC1=O)C(=O)N[C@@H](CC(N)=O)C(=O)N1C[C@H](NC(=N)N)C[C@H]1C(=O)N[C@@H]([C@@H](C)[C@@H](O)CO)C(=O)N2 [Compound 7, Gdn-Pro-amanitin] (cyclo(CN[Pro(trans-4-guanidino)][Ile(4R-OH,5-OH)][Trp(2-yl)]GIG); thioether 1-5) | 100% | 89% | 88% | 99% | 90% | 85% | 93% | 88% | 96% | 77.3 ± 9.0% | 76.1 ± 13.2% | 56.6 ± 11.6% | 31.3 ± 5.8% | ~400 nM | 410 ± 80 nM | 410 ± 80 nM | % viable cells (CHO cells; 1e-005 M, listed as Gdn-Pro-amanitin (7)): 102%; % viable cells (CHO cells; 1.25e-006 M, listed as Gdn-Pro-amanitin (7)): 86%; % viable cells (CHO cells; 1.56e-007 M, listed as Gdn-Pro-amanitin (7)): 91% and 80%; % viable cells (CHO cells; 2e-005 M, listed as Gdn-Pro-amanitin (7)): 101%; % viable cells (CHO cells; 2.5e-006 M, listed as Gdn-Pro-amanitin (7)): 82%; % viable cells (CHO cells; 3.125e-007 M, listed as Gdn-Pro-amanitin (7)): 86%; % viable cells (CHO cells; 6.25e-007 M, listed as Gdn-Pro-amanitin (7)): 83% and 84%; % viable cells (CHO cells; 7.8e-008 M, listed as Gdn-Pro-amanitin (7)): 92%; Transcription activity E (%) (Pol II; 3000 nM): 14.1 ± 7.1%; IC50 fold higher than that of the natural product (Pol II; vs α-amanitin): approximately 50 fold |
| CC[C@H](C)[C@@H]1NC(=O)CNC(=O)[C@@H]2Cc3c([nH]c4ccccc34)SC[C@H](NC(=O)CNC1=O)C(=O)N[C@@H](CC(N)=O)C(=O)N1C[C@H](S)C[C@H]1C(=O)N[C@@H]([C@@H](C)[C@@H](O)CO)C(=O)N2 [Compound 5, SH-Pro-amanitin] (cyclo(CN[Pro(4R-SH)][Ile(4R-OH,5-OH)][Trp(2-yl)]GIG); thioether 1-5) | 94% | 93% | 93% | 106% | 91% | 94% | 100% | 98% | 94% | 99.6 ± 11.6% | 91.2 ± 18.5% | 71.2 ±19.0% | 50.3 ± 20.8% | 910 ± 230 nM | 910 ± 330 nM | 910 ± 330 nM | % viable cells (CHO cells; 1e-005 M, listed as SH-Pro-amanitin (5)): 95%; % viable cells (CHO cells; 1.25e-006 M, listed as SH-Pro-amanitin (5)): 92%; % viable cells (CHO cells; 2e-005 M, listed as SH-Pro-amanitin (5)): 97%; % viable cells (CHO cells; 2.5e-006 M, listed as SH-Pro-amanitin (5)): 99%; % viable cells (CHO cells; 3.125e-007 M, listed as SH-Pro-amanitin (5)): 90%; % viable cells (CHO cells; 5e-006 M, listed as SH-Pro-amanitin (5)): 90% and 96%; % viable cells (CHO cells; 6.25e-007 M, listed as SH-Pro-amanitin (5)): 92% and 95%; % viable cells (CHO cells; 7.8e-008 M, listed as SH-Pro-amanitin (5)): 89%; Transcription activity E (%) (Pol II; 10 nM): 78.5 ± 26.6% |
